Patent US20090291048A1, “LEUKOCYTE-BINDING POLYPEPTIDES AND USES THEREOF” (Baker IDI Heart and Diabetes Institute Holdings Limited, priority 2005, published 2009)

Test system: GPIIb/IIIa (αIIbβ3, CD41/CD61), native or GFFKR-deleted, on CHO cells
Assay: Flow cytometry cross-reactivity with GPIIb/IIIa-expressing CHO cells
Type: binding
Settings: CHO cells with native (non-activated) or GFFKR-deleted (activated) GPIIb/IIIa
Experimental: Cross-reactivity with another fibrinogen binding integrin was assessed in flow cytometry using CHO cells expressing either a GFFKR-deleted and thereby activated GPIIb/IIIa or the native and thereby non-activated platelet integrin GPIIb/IIIa (details of cell generation have been described previously).^30,31 The expression of the activated conformation was determined by the binding of the activation-specific antibody Pac-1. MAN-1 binding was measured by an Alexa Fluor 488-conjugated anti-His-tag secondary antibody. […] Thus, no cross-reactivity to GPIIb/IIIa was seen. A typical result out of three experiments is shown.
Since one of the Mac-1 ligands, fibrinogen, also binds to the platelet integrin GPIIb/IIIa (αIIIbβ3, CD41/CD61) potential cross-reactivity of MAN-1 with this integrin was also evaluated. For this purpose, recombinant CHO cell lines were used, expressing native, non-activated and GFFKR-deleted, activated GPIIb/IIIa as described elsewhere (O'Toole et al J. Cell Biol. 1994; 124:1047-1059; Peter et al, J Exp Med. 1995; 181:315-326; Tadokoro et al Science. 2003; 302:103-106).

Sequence of GPIIb/IIIa (αIIbβ3, CD41/CD61), native or GFFKR-deleted, on CHO cells (P08514 32-887 limits assumed, stated change not applied): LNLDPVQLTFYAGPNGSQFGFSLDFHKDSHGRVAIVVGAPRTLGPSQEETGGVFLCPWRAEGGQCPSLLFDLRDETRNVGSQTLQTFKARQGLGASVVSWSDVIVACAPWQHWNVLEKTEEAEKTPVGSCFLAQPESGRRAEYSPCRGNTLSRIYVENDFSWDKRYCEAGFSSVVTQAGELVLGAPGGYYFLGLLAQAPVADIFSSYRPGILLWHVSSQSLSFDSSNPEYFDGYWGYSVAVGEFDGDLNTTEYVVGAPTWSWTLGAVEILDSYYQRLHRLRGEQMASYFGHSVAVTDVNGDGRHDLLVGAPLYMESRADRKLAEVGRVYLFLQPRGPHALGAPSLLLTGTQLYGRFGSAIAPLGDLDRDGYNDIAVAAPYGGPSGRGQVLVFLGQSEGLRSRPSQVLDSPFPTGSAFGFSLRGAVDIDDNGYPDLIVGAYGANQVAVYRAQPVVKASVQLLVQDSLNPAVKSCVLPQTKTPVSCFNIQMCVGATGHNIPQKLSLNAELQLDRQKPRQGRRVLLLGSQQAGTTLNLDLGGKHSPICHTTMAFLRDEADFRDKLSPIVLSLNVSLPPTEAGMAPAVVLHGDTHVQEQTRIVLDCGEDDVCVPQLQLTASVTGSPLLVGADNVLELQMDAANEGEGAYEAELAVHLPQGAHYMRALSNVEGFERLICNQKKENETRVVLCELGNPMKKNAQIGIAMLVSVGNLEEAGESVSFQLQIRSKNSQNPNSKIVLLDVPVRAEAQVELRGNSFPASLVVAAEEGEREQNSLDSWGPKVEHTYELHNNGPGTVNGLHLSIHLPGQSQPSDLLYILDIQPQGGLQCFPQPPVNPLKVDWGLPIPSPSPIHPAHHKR
Sequence of GPIIb/IIIa (αIIbβ3, CD41/CD61), native or GFFKR-deleted, on CHO cells (P08514 891-1019 limits assumed, stated change not applied): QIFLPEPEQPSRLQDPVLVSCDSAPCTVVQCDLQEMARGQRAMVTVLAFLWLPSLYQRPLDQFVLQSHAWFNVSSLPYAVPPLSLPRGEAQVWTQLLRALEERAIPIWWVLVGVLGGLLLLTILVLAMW
Sequence of GPIIb/IIIa (αIIbβ3, CD41/CD61), native or GFFKR-deleted, on CHO cells (P05106 27-788, stated change not applied, further chain): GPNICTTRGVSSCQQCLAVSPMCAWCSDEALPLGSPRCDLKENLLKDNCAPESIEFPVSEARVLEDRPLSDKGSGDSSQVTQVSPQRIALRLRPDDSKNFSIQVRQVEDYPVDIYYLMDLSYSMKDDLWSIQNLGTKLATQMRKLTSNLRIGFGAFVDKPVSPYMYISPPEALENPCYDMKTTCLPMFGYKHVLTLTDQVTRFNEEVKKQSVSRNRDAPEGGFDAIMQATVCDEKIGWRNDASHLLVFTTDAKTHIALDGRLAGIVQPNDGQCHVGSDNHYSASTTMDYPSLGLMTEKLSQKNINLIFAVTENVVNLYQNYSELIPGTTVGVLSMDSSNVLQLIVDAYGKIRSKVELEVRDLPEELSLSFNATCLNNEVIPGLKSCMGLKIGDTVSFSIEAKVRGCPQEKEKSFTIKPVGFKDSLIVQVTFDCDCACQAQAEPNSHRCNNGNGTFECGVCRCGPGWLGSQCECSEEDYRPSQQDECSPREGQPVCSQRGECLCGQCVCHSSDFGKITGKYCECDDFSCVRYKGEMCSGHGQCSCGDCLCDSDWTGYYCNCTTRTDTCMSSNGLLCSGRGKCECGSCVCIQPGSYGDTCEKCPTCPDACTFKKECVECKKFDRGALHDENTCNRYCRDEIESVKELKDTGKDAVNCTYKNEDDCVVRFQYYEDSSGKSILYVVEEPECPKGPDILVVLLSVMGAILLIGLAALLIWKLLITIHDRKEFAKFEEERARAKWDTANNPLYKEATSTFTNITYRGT

Pac-1
Binding to GPIIb/IIIa: binds to the activated GPIIb/IIIa
